These are literature values, as cited in patent US20240269084A1, “DELAYED RELEASE COMPOSITIONS OF DIMETHYL FUMARATE” (Zim Laboratories Limited, priority 2021, published 2024).

Structures can show the parent of a compound that is named as a salt.

In the case of `COC(=O)/C=C/C(=O)OC` [Dimethyl fumarate, dimethyl (E) butenedioate], the Solubility in water result is “highly soluble in water”.
